# Experimental data taken from ChEMBL document CHEMBL4602605, “Fluoroquinolones structural and medicinal developments (2013-2018): Where are we now?” (Bioorg Med Chem, 2019).
# Assays:
# Format in all cases: functional
# Staphylococcus aureus [1] = experiment: Antimicrobial activity against methicillin-resistant Staphylococcus aureus ATCC 33591 incubated for 18 to 24 hrs by two-fold serial dilution method
# Staphylococcus aureus [2] = experiment: Antimicrobial activity against methicillin-susceptible Staphylococcus aureus ATCC 29213 incubated for 18 to 24 hrs by two-fold serial dilution method
# [3] = tested on: Staphylococcus epidermidis; experiment: Antimicrobial activity against methicillin-susceptible Staphylococcus epidermidis ATCC 12228 incubated for 18 to 24 hrs by two-fold serial dilution method
# Enterococcus faecium = experiment: Antimicrobial activity against Enterococcus faecium ATCC 700221 incubated for 18 to 24 hrs by two-fold serial dilution method
# [4] = tested on: Mycobacterium tuberculosis; experiment: Antimicrobial activity against Mycobacterium tuberculosis H37Rv ATCC 27294 incubated for 7 days by microplate Alamar blue assay; conditions: H37Rv ATCC 27294, 168 h
# Streptococcus pneumoniae = experiment: Antibacterial activity against Streptococcus pneumoniae ATCC 49619 incubated for 24 hrs; conditions: ATCC 49619, 24 h
# Escherichia coli [5] = experiment: Antimicrobial activity against Escherichia coli ATCC 25922 incubated for 24 hrs; conditions: ATCC 25922, 24 h
# Pseudomonas aeruginosa [6] = experiment: Antimicrobial activity against Pseudomonas aeruginosa ATCC 27853 incubated for 24 hrs; conditions: ATCC 27853, 24 h
# Staphylococcus aureus [7] = experiment: Antimicrobial activity against Staphylococcus aureus ATCC 29213 incubated for 24 hrs; conditions: ATCC 29213, 24 h
# Pseudomonas aeruginosa [8] = experiment: Antimicrobial activity against Pseudomonas aeruginosa ATCC 19429 incubated for 18 hrs by CLSI-based microbroth dilution method; conditions: ATCC 19429, 18 h
# Staphylococcus aureus [9] = experiment: Antimicrobial activity against Staphylococcus aureus ATCC 25923 incubated for 18 hrs by CLSI-based microbroth dilution method; conditions: ATCC 25923, 18 h
# Escherichia coli [10] = experiment: Antibacterial activity against Escherichia coli incubated for 18 hrs by CLSI-based broth microdilution method
compound,measurement,setting,value
COc1c(N2CCN(C/C(C)=N/NC(=O)c3ccc(F)cc3)CC2)c(F)cc2c(=O)c(C(=O)O)cn(C3CC3)c12,MIC,Staphylococcus aureus [1],0.125 µg/mL
same,MIC,Staphylococcus aureus [2],0.125 µg/mL
same,MIC,[3],0.125 µg/mL
same,MIC,Enterococcus faecium,> 64 µg/mL
same,MIC,[4],0.266 µM
CCn1cc(C(=O)O)c(=O)c2cc(F)c(N3CCN(C/C(=N/Nc4ccccc4)c4ccc(C)cc4)CC3)cc21,MIC,Streptococcus pneumoniae,100 µg/mL
same,MIC,Escherichia coli [5],25 µg/mL
same,MIC,Pseudomonas aeruginosa [6],> 100 µg/mL
same,MIC,Staphylococcus aureus [7],50 µg/mL
CCn1cc(C(=O)O)c(=O)c2cc(F)c(N3CCN(C/C(=N/O)c4ccc(C)cc4)CC3)cc21,MIC,Streptococcus pneumoniae,100 µg/mL
same,MIC,Escherichia coli [5],50 µg/mL
same,MIC,Pseudomonas aeruginosa [6],100 µg/mL
same,MIC,Staphylococcus aureus [7],50 µg/mL
COc1ccc(/C(CN2CCN(c3cc4c(cc3F)c(=O)c(C(=O)O)cn4C3CC3)CC2)=N\O)cc1,MIC,Streptococcus pneumoniae,50 µg/mL
same,MIC,Escherichia coli [5],12.5 µg/mL
same,MIC,Pseudomonas aeruginosa [6],100 µg/mL
same,MIC,Staphylococcus aureus [7],6.25 µg/mL
CCn1cc(C(=O)O)c(=O)c2cc(F)c(N3CCN(C/C(=N/N)c4ccc(C)cc4)CC3)cc21,MIC,Streptococcus pneumoniae,25 µg/mL
same,MIC,Escherichia coli [5],25 µg/mL
same,MIC,Pseudomonas aeruginosa [6],100 µg/mL
same,MIC,Staphylococcus aureus [7],12.5 µg/mL
CCn1cc(C(=O)O)c(=O)c2cc(F)c(N3CCN(C/C(=N/NC(N)=O)c4ccc([N+](=O)[O-])cc4)CC3)cc21,MIC,Streptococcus pneumoniae,12.5 µg/mL
same,MIC,Escherichia coli [5],6.25 µg/mL
same,MIC,Pseudomonas aeruginosa [6],50 µg/mL
same,MIC,Staphylococcus aureus [7],6.25 µg/mL
CCCCn1cc(C(=O)O)c(=O)c2cc(F)c(N3CCNCC3)cc21.Cl,MIC,Pseudomonas aeruginosa [8],16 µg/mL
same,MIC,Staphylococcus aureus [9],16 µg/mL
same,MIC,Escherichia coli [10],2 µg/mL
CCn1cc(C(=O)O)c(=O)c2cc(F)c(N3CCN(C/C(=N\Nc4ccccc4)c4ccc([N+](=O)[O-])cc4)CC3)cc21,MIC,Streptococcus pneumoniae,100 µg/mL
same,MIC,Escherichia coli [5],50 µg/mL
same,MIC,Pseudomonas aeruginosa [6],> 100 µg/mL
same,MIC,Staphylococcus aureus [7],50 µg/mL
COc1c(N2CCN(CCn3cncn3)CC2)c(F)cc2c(=O)c(C(=O)O)cn(C3CC3)c12,MIC,Staphylococcus aureus [1],4 µg/mL
same,MIC,Staphylococcus aureus [2],4 µg/mL
same,MIC,[3],4 µg/mL
same,MIC,Enterococcus faecium,> 128 µg/mL
same,MIC,[4],4.1 µM
COc1ccc(Cn2cc(C(=O)O)c(=O)c3cc(F)c(N4CCNCC4)cc32)cc1.Cl,MIC,Pseudomonas aeruginosa [8],> 128 µg/mL
same,MIC,Staphylococcus aureus [9],64 µg/mL
same,MIC,Escherichia coli [10],128 µg/mL
CCn1cc(C(=O)O)c(=O)c2cc(F)c(N3CCN(C/C(=N/OC)c4ccc(OC)cc4)CC3)cc21,MIC,Streptococcus pneumoniae,100 µg/mL
same,MIC,Escherichia coli [5],50 µg/mL
same,MIC,Pseudomonas aeruginosa [6],100 µg/mL
same,MIC,Staphylococcus aureus [7],50 µg/mL
COc1c(N2CCN(C/C(C)=N/NC(=O)c3ccc(O)cc3)CC2)c(F)cc2c(=O)c(C(=O)O)cn(C3CC3)c12,MIC,Staphylococcus aureus [1],0.06 µg/mL
same,MIC,Staphylococcus aureus [2],0.125 µg/mL
same,MIC,[3],0.06 µg/mL
same,MIC,Enterococcus faecium,64 µg/mL
same,MIC,[4],0.21 µM
CCN(CC)c1cc2c(cc1F)c(=O)c(C(=O)O)cn2C1CC1,MIC,Pseudomonas aeruginosa [8],32 µg/mL
same,MIC,Staphylococcus aureus [9],0.5 µg/mL
same,MIC,Escherichia coli [10],1 µg/mL
COc1c(N2CCN(CCn3c([N+](=O)[O-])cnc3C)CC2)c(F)cc2c(=O)c(C(=O)O)cn(C3CC3)c12,MIC,Staphylococcus aureus [1],1 µg/mL
same,MIC,Staphylococcus aureus [2],1 µg/mL
same,MIC,[3],1 µg/mL
same,MIC,Enterococcus faecium,> 128 µg/mL
same,MIC,[4],1.72 µM
CCn1cc(C(=O)O)c(=O)c2cc(F)c(N3CCN(C/C(=N/OC)c4ccc([N+](=O)[O-])cc4)CC3)cc21,MIC,Streptococcus pneumoniae,100 µg/mL
same,MIC,Escherichia coli [5],25 µg/mL
same,MIC,Pseudomonas aeruginosa [6],100 µg/mL
same,MIC,Staphylococcus aureus [7],25 µg/mL
COc1c(N2CCN(CCCn3cc([N+](=O)[O-])nc3C)CC2)c(F)cc2c(=O)c(C(=O)O)cn(C3CC3)c12,MIC,Staphylococcus aureus [1],32 µg/mL
same,MIC,Staphylococcus aureus [2],32 µg/mL
same,MIC,[3],32 µg/mL
same,MIC,Enterococcus faecium,> 64 µg/mL
same,MIC,[4],60.3 µM
COc1c(N2CCN(C/C(C)=N/NC(=O)c3ccc([N+](=O)[O-])cc3)CC2)c(F)cc2c(=O)c(C(=O)O)cn(C3CC3)c12,MIC,Staphylococcus aureus [1],0.25 µg/mL
same,MIC,Staphylococcus aureus [2],0.25 µg/mL
same,MIC,[3],0.125 µg/mL
same,MIC,Enterococcus faecium,128 µg/mL
same,MIC,[4],0.294 µM
COc1ccc(/C(CN2CCN(c3cc4c(cc3F)c(=O)c(C(=O)O)cn4C3CC3)CC2)=N/NC(N)=O)cc1,MIC,Streptococcus pneumoniae,12.5 µg/mL
same,MIC,Escherichia coli [5],12.5 µg/mL
same,MIC,Pseudomonas aeruginosa [6],50 µg/mL
same,MIC,Staphylococcus aureus [7],6.25 µg/mL
COc1ccc(/C(CN2CCN(c3cc4c(cc3F)c(=O)c(C(=O)O)cn4C3CC3)CC2)=N\N)cc1,MIC,Streptococcus pneumoniae,12.5 µg/mL
same,MIC,Escherichia coli [5],12.5 µg/mL
same,MIC,Pseudomonas aeruginosa [6],100 µg/mL
same,MIC,Staphylococcus aureus [7],6.25 µg/mL
CCn1cc(C(=O)O)c(=O)c2cc(F)c(N3CCCCCC3)cc21,MIC,Pseudomonas aeruginosa [8],> 128 µg/mL
same,MIC,Staphylococcus aureus [9],0.5 µg/mL
same,MIC,Escherichia coli [10],16 µg/mL
O=C(O)c1cn(C2CC2)c2cc(N3CCCCCC3)c(F)cc2c1=O,MIC,Pseudomonas aeruginosa [8],> 128 µg/mL
same,MIC,Staphylococcus aureus [9],0.25 µg/mL
same,MIC,Escherichia coli [10],2 µg/mL
COc1c(N2CCN(CCn3ccnn3)CC2)c(F)cc2c(=O)c(C(=O)O)cn(C3CC3)c12,MIC,Staphylococcus aureus [1],4 µg/mL
same,MIC,Staphylococcus aureus [2],4 µg/mL
same,MIC,[3],4 µg/mL
same,MIC,Enterococcus faecium,> 128 µg/mL
same,MIC,[4],14.2 µM
Cl.O=C(O)c1cn(CCO)c2cc(N3CCNCC3)c(F)cc2c1=O,MIC,Pseudomonas aeruginosa [8],64 µg/mL
same,MIC,Staphylococcus aureus [9],64 µg/mL
same,MIC,Escherichia coli [10],4 µg/mL
Cl.Cn1cc(C(=O)O)c(=O)c2cc(F)c(N3CCNCC3)cc21,MIC,Pseudomonas aeruginosa [8],2 µg/mL
same,MIC,Staphylococcus aureus [9],8 µg/mL
same,MIC,Escherichia coli [10],0.25 µg/mL
CCn1cc(C(=O)O)c(=O)c2cc(F)c(N3CCN(C/C(=N/NC(N)=O)c4ccccc4)CC3)cc21,MIC,Streptococcus pneumoniae,100 µg/mL
same,MIC,Escherichia coli [5],25 µg/mL
same,MIC,Pseudomonas aeruginosa [6],100 µg/mL
same,MIC,Staphylococcus aureus [7],12.5 µg/mL
CCn1cc(C(=O)O)c(=O)c2cc(F)c(N3CCN(C/C(=N\O)c4ccccc4)CC3)cc21,MIC,Streptococcus pneumoniae,100 µg/mL
same,MIC,Escherichia coli [5],50 µg/mL
same,MIC,Pseudomonas aeruginosa [6],100 µg/mL
same,MIC,Staphylococcus aureus [7],50 µg/mL
